Results reported in patent US20130157954A1, “METHODS FOR TREATMENT OR PROPHYLAXIS OF KIDNEY OR LIVER DYSFUNCTION” (NPS PHARMACEUTICALS, INC., priority 2010, published 2013).

Assay: Example 2: liver biomarkers (albumin, gamma glutamyl transferase, total bilirubin, ALT, AST, ALP) in short bowel syndrome patients, every four weeks for 24 weeks; also sorted by >10% change from baseline
Assay type: in vivo, Human
Settings: 0.05 mg/kg/d
Method: To further confirm the results of Example 1, a further study was conducted involving more individuals and additional diagnostic biomarkers. Human patients with short bowel syndrome were divided into two groups: a control group (43 total individuals) to receive placebo, and an experimental group (42 total individuals) to receive teduglutide at 0.05 mg/kg/day throughout the study. Patients were treated by subcutaneous injection of placebo or the appropriate dose of teduglutide. Known biomarkers of liver function were monitored every four weeks, for 24 weeks. The liver biomarkers tested included albumin, gamma glutamyl transferase, total bilirubin, ALT and AST and ALP. Before administration of placebo or teduglutide, diagnostic biomarker levels were tested to establish a baseline for each individual.
To determine the effect of GLP-2 on the levels of the diagnostic biomarkers, the average level of each biomarker was measured for the placebo and teduglutide treated groups for each visit. Furthermore, the average change from baseline was calculated using the established baseline values. For FIGS. 17-28, p-values were calculated using the t-test.
P values are provided, which were calculated for each distribution of biomarker changes for each week using the chi-squared test.

In the case of CC[C@H](C)[C@H](NC(=O)[C@H](Cc1ccccc1)NC(=O)[C@H](CC(=O)O)NC(=O)[C@H](CCCNC(=N)N)NC(=O)[C@H](C)NC(=O)[C@H](C)NC(=O)[C@H](CC(C)C)NC(=O)[C@H](CC(N)=O)NC(=O)[C@H](CC(=O)O)NC(=O)[C@H](CC(C)C)NC(=O)[C@@H](NC(=O)[C@@H](NC(=O)[C@H](CC(N)=O)NC(=O)[C@H](CCSC)NC(=O)[C@H](CCC(=O)O)NC(=O)[C@H](CC(=O)O)NC(=O)[C@H](CO)NC(=O)[C@H](Cc1ccccc1)NC(=O)[C@H](CO)NC(=O)CNC(=O)[C@H](CC(=O)O)NC(=O)CNC(=O)[C@@H](N)Cc1c[nH]cn1)[C@@H](C)O)[C@@H](C)CC)C(=O)N[C@@H](CC(N)=O)C(=O)N[C@@H](Cc1c[nH]c2ccccc12)C(=O)N[C@@H](CC(C)C)C(=O)N[C@H](C(=O)N[C@@H](CCC(N)=O)C(=O)N[C@H](C(=O)N[C@@H](CCCCN)C(=O)N[C@H](C(=O)N[C@H](C(=O)N[C@@H](CC(=O)O)C(=O)O)[C@@H](C)O)[C@@H](C)CC)[C@@H](C)O)[C@@H](C)CC [teduglutide], the “Bilirubin: subjects Within 10% of Baseline” value (Week 8, m = 40) is reported as 10 (25.0%) n (%), the “Bilirubin: subjects with >10% decrease from Baseline” value (Week 8, m = 40) is reported as 20 (50.0%) n (%) and the “Bilirubin: subjects with >10% increase from Baseline” value (Week 8, m = 40) is reported as 10 (25.0%) n (%). The “ALKALINE PHOSPHATASE Change from Baseline Median” value (Week 12) was −23 U/L, the “ALT Change from Baseline, Max” value (Week 12) was 35 U/L and the “ALT Change from Baseline, Mean” value (Week 12) was −9.8 U/L. For the same molecule, the “ALT Change from Baseline, Median” value (Week 12) was −4 U/L, the “ALT Change from Baseline, Min” value (Week 12) was −62 U/L and the “ALT Observed Value, Max” value (Week 12) was 94 U/L. For the same molecule, the “ALT Observed Value, Min” value (Week 12) was 11 U/L, the “AST Change from Baseline, Max” value (Week 12) was 34 U/L and the “AST Change from Baseline, Mean” value (Week 12) was −4.2 U/L. The “AST Change from Baseline, Median” value (Week 12) was −5 U/L, the “AST Change from Baseline, Min” value (Week 12) was −39 U/L and the “AST Observed Value, Max” value (Week 12) was 60 U/L. The “AST Observed Value, Median” value (Week 12) was 25 U/L, the “AST Observed Value, Min” value (Week 12) was 9 U/L and the “Albumin Change from Baseline, Max” value (Week 12) was 5 g/L. The “Albumin Change from Baseline, Mean” value (Week 12) was -0.9 g/L, the “Albumin Change from Baseline, Median” value (Week 12) was -1 g/L and the “Albumin Change from Baseline, Min” value (Week 12) was -7 g/L. The “Albumin Observed Value, Max” value (Week 12) was 47 g/L, the “Albumin Observed Value, Median” value (Week 12) was 41 g/L and the “Albumin Observed Value, Min” value (Week 12) was 35 g/L. The “Alkaline Phosphatase Change from Baseline, Max” value (Week 12) was 25 U/L, the “Alkaline Phosphatase Change from Baseline, Min” value (Week 12) was −127 U/L and the “Alkaline Phosphatase Observed Value, Max” value (Week 12) was 304 U/L. For the same molecule, the “Alkaline Phosphatase Observed Value, Median” value (Week 12) was 98 U/L, the “Alkaline Phosphatase Observed Value, Min” value (Week 12) was 52 U/L and the “Bilirubin Change from Baseline, Max” value (Week 12) was 5.2 µmol/L. The “Bilirubin Change from Baseline, Median” value (Week 12) was -0.05 µmol/L, the “Bilirubin Change from Baseline, Min” value (Week 12) was -13.2 µmol/L and the “Bilirubin Observed Value, Max” value (Week 12) was 57.8 µmol/L. For the same molecule, the “Bilirubin Observed Value, Min” value (Week 12) was 3.2 µmol/L, the “Gamma Glutamyl Transferase Change from Baseline, Max” value (Week 12) was 56 U/L and the “Gamma Glutamyl Transferase Change from Baseline, Mean” value (Week 12) was −8.1 U/L. For the same molecule, the “Gamma Glutamyl Transferase Change from Baseline, Median” value (Week 12) was −4 U/L, the “Gamma Glutamyl Transferase Change from Baseline, Min” value (Week 12) was −162 U/L and the “Gamma Glutamyl Transferase Observed Value, Max” value (Week 12) was 240 U/L. The “Gamma Glutamyl Transferase Observed Value, Median” value (Week 12) was 51 U/L, the “Gamma Glutamyl Transferase Observed Value, Min” value (Week 12) was 8 U/L and the “ALT: subjects Within 10% of Baseline” value (Week 12, m = 34) was 10 (29.4%) n (%). The “ALT: subjects with >10% decrease from Baseline” value (Week 12, m = 34) was 17 (50.0%) n (%), the “ALT: subjects with >10% increase from Baseline” value (Week 12, m = 34) was 7 (20.6%) n (%) and the “AST: subjects Within 10% of Baseline” value (Week 12, m = 34) was 6 (17.6%) n (%). The “AST: subjects with >10% decrease from Baseline” value (Week 12, m = 34) was 21 (61.8%) n (%), the “AST: subjects with >10% increase from Baseline” value (Week 12, m = 34) was 7 (20.6%) n (%) and the “Albumin: subjects Within 10% of Baseline” value (Week 12, m = 34) was 31 (91.2%) n (%). For the same molecule, the “Albumin: subjects with >10% decrease from Baseline” value (Week 12, m = 34) was 2 (5.9%) n (%), the “Albumin: subjects with >10% increase from Baseline” value (Week 12, m = 34) was 1 (2.9%) n (%) and the “Alkaline Phosphatase: subjects Within 10% of Baseline” value (Week 12, m = 34) was 6 (17.6%) n (%). For the same molecule, the “Alkaline Phosphatase: subjects with >10% decrease from Baseline” value (Week 12, m = 34) was 23 (67.6%) n (%), the “Alkaline Phosphatase: subjects with >10% increase from Baseline” value (Week 12, m = 34) was 5 (14.7%) n (%) and the “Bilirubin: subjects Within 10% of Baseline” value (Week 12, m = 34) was 10 (29.4%) n (%). For the same molecule, the “Bilirubin: subjects with >10% decrease from Baseline” value (Week 12, m = 34) was 15 (44.1%) n (%), the “Bilirubin: subjects with >10% increase from Baseline” value (Week 12, m = 34) was 9 (26.5%) n (%) and the “ALT Change from Baseline, Max” value (Week 16) was 45 U/L. For the same molecule, the “ALT Change from Baseline, Mean” value (Week 16) was −8.0 U/L, the “ALT Change from Baseline, Median” value (Week 16) was −3 U/L and the “ALT Change from Baseline, Min” value (Week 16) was −64 U/L. The “ALT Observed Value, Max” value (Week 16) was 140 U/L, the “ALT Observed Value, Min” value (Week 16) was 13 U/L and the “AST Change from Baseline, Max” value (Week 16) was 20 U/L. For the same molecule, the “AST Change from Baseline, Mean” value (Week 16) was −3.3 U/L, the “AST Change from Baseline, Median” value (Week 16) was −3 U/L and the “AST Change from Baseline, Min” value (Week 16) was −42 U/L. For the same molecule, the “AST Observed Value, Max” value (Week 16) was 65 U/L, the “AST Observed Value, Median” value (Week 16) was 26 U/L and the “AST Observed Value, Min” value (Week 16) was 9 U/L. For the same molecule, the “Albumin Change from Baseline, Max” value (Week 16) was 3 g/L, the “Albumin Change from Baseline, Mean” value (Week 16) was -0.7 g/L and the “Albumin Change from Baseline, Median” value (Week 16) was -0.5 g/L. The “Albumin Change from Baseline, Min” value (Week 16) was -5 g/L, the “Albumin Observed Value, Max” value (Week 16) was 49 g/L and the “Albumin Observed Value, Median” value (Week 16) was 42 g/L. The “Albumin Observed Value, Min” value (Week 16) was 32 g/L, the “Alkaline Phosphatase Change from Baseline, Max” value (Week 16) was 71 U/L and the “Alkaline Phosphatase Change from Baseline, Min” value (Week 16) was −104 U/L. For the same molecule, the “Alkaline Phosphatase Observed Value, Max” value (Week 16) was 311 U/L, the “Alkaline Phosphatase Observed Value, Min” value (Week 16) was 46 U/L and the “Bilirubin Change from Baseline, Max” value (Week 16) was 5.2 µmol/L. The “Bilirubin Change from Baseline, Min” value (Week 16) was -37.7 µmol/L, the “Bilirubin Observed Value, Max” value (Week 16) was 27.4 µmol/L and the “Bilirubin Observed Value, Mean” value (Week 16) was 9.40 µmol/L. The “Bilirubin Observed Value, Median” value (Week 16) was 8.1 µmol/L, the “Bilirubin Observed Value, Min” value (Week 16) was 3.4 µmol/L and the “Gamma Glutamyl Transferase Change from Baseline, Max” value (Week 16) was 90 U/L. The “Gamma Glutamyl Transferase Change from Baseline, Mean” value (Week 16) was −7.0 U/L, the “Gamma Glutamyl Transferase Change from Baseline, Median” value (Week 16) was −5.5 U/L and the “Gamma Glutamyl Transferase Change from Baseline, Min” value (Week 16) was −161 U/L. For the same molecule, the “Gamma Glutamyl Transferase Observed Value, Max” value (Week 16) was 294 U/L, the “Gamma Glutamyl Transferase Observed Value, Median” value (Week 16) was 54 U/L and the “Gamma Glutamyl Transferase Observed Value, Min” value (Week 16) was 6 U/L. For the same molecule, the “ALT: subjects Within 10% of Baseline” value (Week 16, m = 38) was 10 (26.3%) n (%), the “ALT: subjects with >10% decrease from Baseline” value (Week 16, m = 38) was 20 (52.6%) n (%) and the “ALT: subjects with >10% increase from Baseline” value (Week 16, m = 38) was 8 (21.1%) n (%). The “AST: subjects Within 10% of Baseline” value (Week 16, m = 38) was 12 (31.6%) n (%), the “AST: subjects with >10% decrease from Baseline” value (Week 16, m = 38) was 19 (50.0%) n (%) and the “AST: subjects with >10% increase from Baseline” value (Week 16, m = 38) was 7 (18.4%) n (%). For the same molecule, the “Albumin: subjects Within 10% of Baseline” value (Week 16, m = 38) was 36 (94.7%) n (%), the “Albumin: subjects with >10% decrease from Baseline” value (Week 16, m = 38) was 2 (5.3%) n (%) and the “Albumin: subjects with >10% increase from Baseline” value (Week 16, m = 38) was 0 n (%).
